Experimental data published in patent publication US20240228512A1, “ACYCLIC OXAZEPINE COMPOUNDS COMPRISING A 6-AZA MOIETY AND USES THEREOF” (Genentech, Inc., priority 2022, published 2024).
pIC50: −log10 of the molar value.

Assays:
Assay type in all cases: cell-based
[1] = system: SW620 cells; experiment: SW620 3D proliferation assay (CellTiter-Glo); conditions: Homo sapiens, SW-620, 168 h, SW620, 3D culture, 7 days, read-out: SW620 CTG IC50
Description: (§1) SW620 and HPAC 3D proliferation assays.
(§2) Compound potencies were assessed in proliferation assays conducted with SW620 and HPAC cell lines grown in 3D cultures. Cells were seeded into 96- or 384-well ultra-low attachment plates at 3000 or 1000 cells/well, respectively, in culture medium (RPMI-1640, 10% FBS, 2 mM L-glutamine). The plated cells were centrifuged briefly, allowed to rest for 30 minutes under ambient conditions, and cultured overnight at 37° C./5% CO2 to initiate the formation of spheroids. Compound dilutions were prepared across a range of concentrations in DMSO and added to the appropriate wells of the assay plates with a 333-fold dilution into the culture medium. The plates were further incubated for 7 days. The quantity of viable cells was assessed using CellTiter-Glo 3D Cell Viability Assay (Promega). The detection reagent penetrates the spheroids and lyses the cells. The released ATP that was detected with luciferase and a luciferase substrate to generate a luminescent readout. […] The data points were fit to a 4-parameter logistic equation to determine IC50 values.

[2] = system: SW620 PERK; experiment: SW620 PERK assay; conditions: Homo sapiens, SW-620, SW620, PERK
[3] = system: H1975 cells; experiment: H1975 CTG proliferation assay; conditions: Homo sapiens, NCI-H1975, H1975, CTG
[4] = system: HPAC cells; experiment: HPAC 3D proliferation assay (CellTiter-Glo); conditions: Homo sapiens, 168 h, 3D culture, 7 days, read-out: HPAC CTG IC50
Description: as §1, §2

Row | Compound | pIC50 [1] | pIC50 [2] | pIC50 [3] | pIC50 [4]
1 | Cc1c(F)c(N)cc(-c2nc3c4c(nc(OC[C@@H]5CC(F)(F)CN5C)nc4c2F)N([C@H](C)c2nccnc2N)CCO3)c1C(F)(F)F [Example 8, 3-((R)-1-(5-(5-amino-4-fluoro-3-methyl-2-(trifluoromethyl)phenyl)-2-(((S)-4,4-difluoro-1-methylpyrrolidin-2-yl)methoxy)-4-fluoro-8,9-dihydro-10H-7-oxa-1,3,6,10-tetraazacyclohepta[de]naphthalen-10-yl)ethyl)pyrazin-2-amine] | 6.34 | 6.86 | 6.26 | 5.70
2 | Cc1c(F)c(N)cc(-c2nc3c4c(nc(OC[C@@]56CCCN5C[C@H](F)C6)nc4c2F)N([C@H](C)c2nccnc2N)CCO3)c1C(F)(F)F [Example 9, 3-((R)-1-(5-(5-amino-4-fluoro-3-methyl-2-(trifluoromethyl)phenyl)-4-fluoro-2-(((2R,7aS)-2-fluorotetrahydro-1H-pyrrolizin-7a(5H)-yl)methoxy)-8,9-dihydro-10H-7-oxa-1,3,6,10-tetraazacyclohepta[de]naphthalen-10-yl)ethyl)pyrazin-2-amine] | 7.58 | 7.71 | 7.95 | 7.13
3 | Cc1c(F)c(N)cc(-c2nc3c4c(nc(OC[C@@H]5CC[C@H]6COCCN65)nc4c2F)N([C@H](C)c2nccnc2N)CCO3)c1C(F)(F)F [Example 10, 3-((R)-1-(5-(5-amino-4-fluoro-3-methyl-2-(trifluoromethyl)phenyl)-4-fluoro-2-(((6S,8aS)-hexahydro-1H-pyrrolo[2,1-c][1,4]oxazin-6-yl)methoxy)-8,9-dihydro-10H-7-oxa-1,3,6,10-tetraazacyclohepta[de]naphthalen-10-yl)ethyl)pyrazin-2-amine] | 6.94 | 7.52 | 7.27 | 6.36
4 | C#Cc1cccc2cc(O)cc(-c3nc4c5c(nc(OC[C@@]67CCCN6C[C@H](F)C7)nc5c3F)N([C@H](C)c3nccnc3N)CCO4)c12 [Example 11, 4-(10-((R)-1-(3-aminopyrazin-2-yl)ethyl)-4-fluoro-2-(((2R,7aS)-2-fluorotetrahydro-1H-pyrrolizin-7a(5H)-yl)methoxy)-9,10-dihydro-8H-7-oxa-1,3,6,10-tetraazacyclohepta[de]naphthalen-5-yl)-5-ethynyinaphthalen-2-ol] | 8.27 | 8.72 | 8.59 | 6.76
5 | Cc1c(F)c(N)c(F)c(-c2nc3c4c(nc(OC[C@@]56CCCN5C[C@H](F)C6)nc4c2F)N([C@H](C)c2nccnc2N)CCO3)c1C(F)(F)F [Example 13, 3-((1R)-1-(5-(3-amino-2,4-difluoro-5-methyl-6-(trifluoromethyl)phenyl)-4-fluoro-2-(((2R,7aS)-2-fluorotetrahydro-1H-pyrrolizin-7a(5H)-yl)methoxy)-8,9-dihydro-10H-7-oxa-1,3,6,10-tetraazacyclohepta[de]naphthalen-10-yl)ethyl)pyrazin-2-amine] | 7.57 |  | 7.13 | 
6 | Cc1c(F)c(N)cc(-c2nc3c4c(nc(OC[C@@H]5CC(F)(F)CN5C)nc4c2F)N([C@H](C)c2cccnc2N)CCO3)c1C(F)(F)F [Example 20, 3-((R)-1-(5-(5-amino-4-fluoro-3-methyl-2-(trifluoromethyl)phenyl)-2-(((S)-4,4-difluoro-1-methylpyrrolidin-2-yl)methoxy)-4-fluoro-8,9-dihydro-10H-7-oxa-1,3,6,10-tetraazacyclohepta[de]naphthalen-10-yl)ethyl)pyridin-2-amine] | 7.52 | 8.07 | 6.38 | 6.32
